Experimental data reported in EP0602465A1, “Use of CN substituted benzimidazoles” (BAYER AG, priority 1992, dated 1994).

How the values were obtained:
Assay in all cases: Coccidiosis in chickens: oocyst excretion in faeces (McMaster chamber)
Assay type in all cases: in vivo
Settings in all cases: 3 days before until 8 days after infection, chicks 9 to 11 days old, 40 000 sporulated oocysts, 100 % = no effect, 0 % = full effect
E. tenella = tested on: E. tenella
E.acervulina = tested on: E.acervulina
E. maxima = tested on: E. maxima

With `CC(C)OC(=O)N(Cc1ccccc1)Cn1c(C#N)nc2c(Br)cc(C(F)(F)F)cc21` [Beispiel 57] the E. tenella (E. tenella; Dosis 100 ppm in feed) was 93%, the E. tenella (E. tenella; Dosis 250 ppm in feed) was 0% and the “E.acervulina Oocystenausscheidung in % im Vergleich zur unbehandelten infizierten Kontrolle” value (E.acervulina; Dosis 100 ppm in feed) was 38%. For the same compound, the “E.acervulina Oocystenausscheidung in % im Vergleich zur unbehandelten infizierten Kontrolle” value (E.acervulina; Dosis 250 ppm in feed) was 0,01%, the “E. maxima Oocytenausscheidung in % im Vergleich zur unbehandelten infizierten Kontrolle” value (E. maxima; Dosis 100 ppm in feed) was 5,3% and the “E. maxima Oocytenausscheidung in % im Vergleich zur unbehandelten infizierten Kontrolle” value (E. maxima; Dosis 250 ppm in feed) was 0%.
In the case of `CCCCN(Cn1c(C#N)nc2c(Br)cc(C(F)(F)F)cc21)C(=O)OC` [Beispiel 37], the E. tenella (E. tenella; Dosis 100 ppm in feed) is reported as 32%, the E. tenella (E. tenella; Dosis 250 ppm in feed) is reported as 0% and the “E.acervulina Oocystenausscheidung in % im Vergleich zur unbehandelten infizierten Kontrolle” value (E.acervulina; Dosis 100 ppm in feed) is reported as 28%. The “E.acervulina Oocystenausscheidung in % im Vergleich zur unbehandelten infizierten Kontrolle” value (E.acervulina; Dosis 250 ppm in feed) was 0,5%, the “E. maxima Oocytenausscheidung in % im Vergleich zur unbehandelten infizierten Kontrolle” value (E. maxima; Dosis 100 ppm in feed) was 26% and the “E. maxima Oocytenausscheidung in % im Vergleich zur unbehandelten infizierten Kontrolle” value (E. maxima; Dosis 250 ppm in feed) was 0%.
